{"source": "patent US6563024B1", "about": "“Process for transformation of mature trees of Eucalyptus plants” (OJI Paper Co., Ltd., priority 1999, dated 2003)", "key": {"[1]": {"test_system": "precocious branches of Eucalyptus camaldulensis", "assay": "Transgenic calli formation after infection induction treatment of precocious branches with NAA, then Agrobacterium tumefaciens EHA101/pIG121-Hm infection", "type": "cell-based", "details": "30 days", "procedure": "Culturing was performed for 7 to 14 days at a temperature of 26 to 28° C. under dark conditions. After cutting the precocious branches subjected to the infection induction treatment to segments of 2 to 10 mm length with a knife, the segments were immersed in the culture medium of Agrobacterium tumefaciens strain EHA101/pIG121-Hm prepared according to the method described above. After wiping off the culture medium adhered to the segments of the precocious branches with filter paper, the sections of the precocious branches were embedded in an infection medium containing 2 mg/l NAA, 0.2 mg/l 4-PU, 1 mM galactose, 10 μM acetosyringone, 3% sucrose and 0.02% gellan gum in B5 basal medium, followed by stationary-culturing for 2 days at a temperature of 26° C. and under dark conditions to infect the precocious branches with Agrobacterium tumefaciens. With the exception of inducing precocious branches from three Eucalyptus camaldulensis plants, and performing infection induction treatment with the concentration of NAA in the precocious branch infection induction medium at 0, 0.02, 0.2 or 2.0 mg/l, the precocious branches were infected with Agrobacterium tumefaciens strain EHA101/pIG121-Hm in the same manner as described in Example 1, and the number of transgenic calli that express intron GUS gene was investigated 30 days after the start of the infection induction treatment. For plant 1, the case of testing precocious branches of the untreated group on which infection treatment was not performed, transformation efficiency of 23.1% was obtained. […] In addition, in the untreated group of plant 2 as well in which infection was difficult, transgenic calli were observed following infection induction by NAA. One the basis of these findings, infection induction treatment of precocious branches was clearly shown to be effective in improving transformation efficiency."}, "[2]": {"test_system": "precocious branches of Eucalyptus camaldulensis", "assay": "Transgenic calli formation with varied NAA concentration in infection medium and sterilization medium", "type": "cell-based", "details": "4-PU 0.2 mg/l", "procedure": "After cutting the precocious branches subjected to the infection induction treatment to segments of 2 to 10 mm length with a knife, the segments were immersed in the culture medium of Agrobacterium tumefaciens strain EHA101/pIG121-Hm prepared according to the method described above. After wiping off the culture medium adhered to the segments of the precocious branches with filter paper, the sections of the precocious branches were embedded in an infection medium containing 2 mg/l NAA, 0.2 mg/l 4-PU, 1 mM galactose, 10 μM acetosyringone, 3% sucrose and 0.02% gellan gum in B5 basal medium, followed by stationary-culturing for 2 days at a temperature of 26° C. and under dark conditions to infect the precocious branches with Agrobacterium tumefaciens. The explant segments treated as described above were transplanted to a sterilization medium containing 2 mg/l NAA, 0.2 mg/l 4-PU or 4CPPU, 3% sucrose, and 500 mg/l of carbenicillin as antibiotic for sterilizing Agrobacterium attached to the explant segments, and were vertical-rotary-cultured for 7 - days at a temperature of 26° C. and rotating speed of 2 rpm under dark conditions to sterilize the Agrobacterium tumefaciens. With the exception of inducing precocious branches from a different plant of Eucalyptus camaldulensis, and the NAA concentrations used in the infection medium and sterilization medium, the precocious branches were infected with agrobacterium tumefaciens strain EHA101/pIG121-Hm in the same manner as described in Example 1 to produce transgenic calli."}}, "note": "“And” between values parts separate entries of the source, which are not always exact repeats. Equal entries are not always repeated."}
{"smiles": "O=C(O)Cc1cccc2ccccc12", "note": "[NAA, naphthaleneacetic acid]", "values": [{"measurement": "Transformation efficiency = No. of transgenic calli/No. of tested segments × 100", "setting": "[1]; plant No. 1, NAA 0.02 mg/l in infection induction medium", "result": "72.9% and 73%"}, {"measurement": "Transformation efficiency = No. of transgenic calli/No. of tested segments × 100", "setting": "[1]; plant No. 1, NAA 0.2 mg/l in infection induction medium", "result": 64, "unit": "%"}, {"measurement": "Transformation efficiency = No. of transgenic calli/No. of tested segments × 100", "setting": "[1]; plant No. 1, NAA 2.0 mg/l in infection induction medium", "result": 49, "unit": "%"}, {"measurement": "Transformation efficiency = No. of transgenic calli/No. of tested segments × 100", "setting": "[1]; plant No. 2, NAA 0.02 mg/l in infection induction medium", "result": 8, "unit": "%"}, {"measurement": "Transformation efficiency = No. of transgenic calli/No. of tested segments × 100", "setting": "[1]; plant No. 2, NAA 0.2 mg/l in infection induction medium", "result": 31, "unit": "%"}, {"measurement": "Transformation efficiency = No. of transgenic calli/No. of tested segments × 100", "setting": "[1]; plant No. 2, NAA 2.0 mg/l in infection induction medium", "result": 19, "unit": "%"}, {"measurement": "Transformation efficiency = No. of transgenic calli/No. of tested segments × 100", "setting": "[1]; plant No. 3, NAA 0.02 mg/l in infection induction medium", "result": 69, "unit": "%"}, {"measurement": "Transformation efficiency = No. of transgenic calli/No. of tested segments × 100", "setting": "[1]; plant No. 3, NAA 0.2 mg/l in infection induction medium", "result": 38, "unit": "%"}, {"measurement": "Transformation efficiency = No. of transgenic calli/No. of tested segments × 100", "setting": "[1]; plant No. 3, NAA 2.0 mg/l in infection induction medium", "result": 59, "unit": "%"}, {"measurement": "Transformation efficiency", "setting": "[2]; infection medium NAA 0.02 mg/l, sterilization medium NAA 0.02 mg/l", "result": 14, "unit": "%"}, {"measurement": "Transformation efficiency", "setting": "[2]; infection medium NAA 0.02 mg/l, sterilization medium NAA 2 mg/l", "result": 4, "unit": "%"}, {"measurement": "Transformation efficiency", "setting": "[2]; infection medium NAA 2 mg/l, sterilization medium NAA 0.02 mg/l", "result": 11, "unit": "%"}, {"measurement": "Transformation efficiency", "setting": "[2]; infection medium NAA 2 mg/l, sterilization medium NAA 2 mg/l", "result": 42, "unit": "%"}]}
